Measurements: patent US20060153782A1, “Skin photoageing and actinic damage treatment” (Novogen Research Pty Ltd, priority 2002, published 2006)

Assays:
CPD+ve epidermal cells = experiment: Cyclobutane pyrimidine dimers (CPD) in UV-irradiated human skin; type: in vivo; conditions: human subject; equol treated skin post-UVR compared with vehicle-only treated skin
Source text: The formation of CPD's, which occurs immediately on UV exposure (Viv Reeve, pers comm) would be unaffected by any therapeutic agent applied post-UVR. However, the rate of repair of CPDs might be increased by equol. If this occurred, fewer CPDs in equol treated skin compared with the number in vehicle-only treated skin would be observed. [drawing 5] Equol (CAS No. 531-95-3)

skin thickness = experiment: Skin thickness of hairless mice after chronic UV exposure; type: in vivo; conditions: hairless mice treated either before or after chronic UV exposure, vs non-treated mice
Source text: Increased skin thickness may be associated with wrinkles, capillary dilation in skin and skin dryness, as well as actinic damage.

SMILES | percentage of CPD+ve epidermal cells (CPD+ve epidermal cells) | skin thickness (skin thickness)
Oc1ccc(C2COc3cc(O)ccc3C2)cc1 (stereo not drawn) [equol, Equol] | lower percentage of CPD+ve epidermal cells | decreased skin thickness
Oc1ccc(C2=Cc3ccc(O)cc3OC2)cc1 [dehydroequol] | – | decreased skin thickness
